These results are taken from patent US20240182461A1, “SELECTIVE ANGIOTENSIN II RECEPTOR LIGANDS” (priority 2021, published 2024).

Like-named read-outs stand apart in the source and are kept apart here.

Data set [1] concerns the target T1, CYP2C9 (Homo sapiens, UniProt P11712). Briefly: CYP inhibition of C21 found during development. In kind it is in vitro ADME.
Data set [2] concerns the target T2, CYP3A4 (Homo sapiens, UniProt P08684). In words: CYP inhibition of C21 found during development. Format: in vitro ADME.
The nature of data set [3]: Metabolic hydrolysis of C21 found during development. Format: in vitro ADME.
Data set [4] is described as follows: Metabolic stability in pooled human liver microsomes. Format: in vitro ADME. Conditions: human liver microsomes 0.5 mg/mL, 1 μM compound, 37° C. In general terms: Liver microsomes are a subcellular fraction often used to study metabolism.
The target of data set [5] is T3, human recombinant AT2 receptor (Homo sapiens, UniProt P50052).
T3 construct: Eurofins (protocol only) ITEM26
T3 sequence (P50052 1-363): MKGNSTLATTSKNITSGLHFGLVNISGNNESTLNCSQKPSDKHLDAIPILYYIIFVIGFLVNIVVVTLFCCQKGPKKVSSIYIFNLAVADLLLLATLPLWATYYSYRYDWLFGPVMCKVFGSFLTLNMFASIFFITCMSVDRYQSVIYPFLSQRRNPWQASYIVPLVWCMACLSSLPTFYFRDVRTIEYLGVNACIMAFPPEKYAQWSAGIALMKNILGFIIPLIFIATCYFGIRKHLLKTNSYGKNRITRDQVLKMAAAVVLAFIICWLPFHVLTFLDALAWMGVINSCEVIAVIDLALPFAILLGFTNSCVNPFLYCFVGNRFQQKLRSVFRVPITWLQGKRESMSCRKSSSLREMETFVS
In words: Radioligand binding to AT2 receptor (Eurofins radiometric scintillation assay). Conditions: ligand 125I CGP 42112A; for IC50: 1, 10, 100 and 1000 nM, read-out: AT2 GraFit IC50; for Ki: seven-point dose-response curve, read-out: AT2R Ki.

In data set [6] the target is T4, human recombinant AT1 receptor (Homo sapiens, UniProt P30556).
T4 construct: Eurofins (protocol only) ITEM24
T4 sequence (P30556 1-359): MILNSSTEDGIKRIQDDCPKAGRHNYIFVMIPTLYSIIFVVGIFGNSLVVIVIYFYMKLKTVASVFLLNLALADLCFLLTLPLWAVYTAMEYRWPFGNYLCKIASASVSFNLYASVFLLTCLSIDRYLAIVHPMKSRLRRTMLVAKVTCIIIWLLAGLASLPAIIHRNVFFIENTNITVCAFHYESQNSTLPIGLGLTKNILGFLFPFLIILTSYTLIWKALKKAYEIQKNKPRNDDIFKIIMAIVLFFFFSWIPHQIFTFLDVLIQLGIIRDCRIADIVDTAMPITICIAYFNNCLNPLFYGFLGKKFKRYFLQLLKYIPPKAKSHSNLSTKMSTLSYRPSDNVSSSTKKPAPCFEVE
In words: Radioligand binding to AT1 receptor (Eurofins radiometric scintillation assay). Conditions: 1 and 10 μM; ligand 125I(sar1,Ile8)-AT-II.

Data set [7] addresses T5, CYP1A (Homo sapiens, UniProt P05177).
T5 construct: incubated with human liver microsomes; from tissue; host or cells: human liver microsomes
Briefly: CYP inhibition in human liver microsomes, CYP1A. Format: in vitro ADME. As to conditions: probe phenacetin, substrate phenacetin, read-out: CYP1A Inh %.

Data set [8] addresses T6, CYP2B6 (Homo sapiens, UniProt P20813).
T6 construct: incubated with human liver microsomes; from tissue; host or cells: human liver microsomes
T6 sequence (P20813 1-491): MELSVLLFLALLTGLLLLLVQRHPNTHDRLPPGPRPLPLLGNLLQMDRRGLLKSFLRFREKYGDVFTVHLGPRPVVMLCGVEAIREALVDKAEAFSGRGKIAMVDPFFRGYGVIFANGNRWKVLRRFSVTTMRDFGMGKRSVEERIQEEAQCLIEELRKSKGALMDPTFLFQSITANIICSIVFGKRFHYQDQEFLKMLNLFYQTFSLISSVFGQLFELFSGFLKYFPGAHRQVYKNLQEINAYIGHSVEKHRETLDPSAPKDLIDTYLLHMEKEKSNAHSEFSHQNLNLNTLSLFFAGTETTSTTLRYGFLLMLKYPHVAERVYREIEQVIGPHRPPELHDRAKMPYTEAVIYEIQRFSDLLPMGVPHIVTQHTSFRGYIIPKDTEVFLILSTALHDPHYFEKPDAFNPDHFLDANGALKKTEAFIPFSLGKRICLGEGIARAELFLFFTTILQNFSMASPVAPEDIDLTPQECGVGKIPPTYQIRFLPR
In words: CYP inhibition in human liver microsomes, CYP2B6. In kind it is in vitro ADME. As to conditions: probe bupropion, substrate bupropion, read-out: CYP2B6 Inh %.

Data set [9] deals with T7, CYP2C19 (Homo sapiens, UniProt P33261).
T7 construct: incubated with human liver microsomes; from tissue; host or cells: human liver microsomes
T7 sequence (P33261 whole entry): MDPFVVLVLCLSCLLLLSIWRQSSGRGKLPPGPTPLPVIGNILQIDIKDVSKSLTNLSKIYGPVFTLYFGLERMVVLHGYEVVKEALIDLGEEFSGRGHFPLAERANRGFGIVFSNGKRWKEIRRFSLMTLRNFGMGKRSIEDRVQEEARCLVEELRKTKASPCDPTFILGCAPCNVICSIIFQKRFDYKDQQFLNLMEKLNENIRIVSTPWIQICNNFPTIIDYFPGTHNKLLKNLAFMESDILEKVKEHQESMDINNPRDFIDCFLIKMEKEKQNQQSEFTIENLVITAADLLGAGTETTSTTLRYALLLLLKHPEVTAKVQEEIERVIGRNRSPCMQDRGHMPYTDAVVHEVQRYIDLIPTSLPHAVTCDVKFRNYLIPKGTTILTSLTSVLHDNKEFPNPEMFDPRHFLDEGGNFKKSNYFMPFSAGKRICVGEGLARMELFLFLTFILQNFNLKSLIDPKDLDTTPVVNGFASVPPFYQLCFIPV
In words: CYP inhibition in human liver microsomes, CYP2C19. In kind it is in vitro ADME. Conditions: probe omeprazole, substrate omeprazole, read-out: CYP2C19 Inh %.

Data set [10] deals with T8, CYP2C8 (Homo sapiens, UniProt P10632).
T8 construct: incubated with human liver microsomes; from tissue; host or cells: human liver microsomes
T8 sequence (P10632 1-490): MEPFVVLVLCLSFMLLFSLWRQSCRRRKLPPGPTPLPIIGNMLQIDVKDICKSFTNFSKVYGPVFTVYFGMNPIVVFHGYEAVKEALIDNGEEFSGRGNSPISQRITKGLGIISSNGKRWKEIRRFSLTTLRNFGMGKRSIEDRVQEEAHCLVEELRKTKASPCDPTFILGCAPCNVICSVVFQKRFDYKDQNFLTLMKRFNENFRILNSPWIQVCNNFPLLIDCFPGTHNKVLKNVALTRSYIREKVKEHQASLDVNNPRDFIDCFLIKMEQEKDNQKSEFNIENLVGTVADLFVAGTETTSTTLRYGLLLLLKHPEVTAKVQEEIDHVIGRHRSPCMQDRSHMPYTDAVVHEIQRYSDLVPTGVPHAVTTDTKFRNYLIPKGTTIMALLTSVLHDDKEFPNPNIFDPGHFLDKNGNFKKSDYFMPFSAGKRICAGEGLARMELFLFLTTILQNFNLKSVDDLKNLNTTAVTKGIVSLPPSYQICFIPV
In words: CYP inhibition in human liver microsomes, CYP2C8. Format: in vitro ADME. As to conditions: probe paclitaxel and amodiaquine, substrates paclitaxel and amodiaquine, read-out: CYP2C8 Inh %.

For data set [11], the target named is T9, CYP2D6 (Homo sapiens, UniProt P10635).
T9 construct: incubated with human liver microsomes; from tissue; host or cells: human liver microsomes
T9 sequence (P10635 whole entry): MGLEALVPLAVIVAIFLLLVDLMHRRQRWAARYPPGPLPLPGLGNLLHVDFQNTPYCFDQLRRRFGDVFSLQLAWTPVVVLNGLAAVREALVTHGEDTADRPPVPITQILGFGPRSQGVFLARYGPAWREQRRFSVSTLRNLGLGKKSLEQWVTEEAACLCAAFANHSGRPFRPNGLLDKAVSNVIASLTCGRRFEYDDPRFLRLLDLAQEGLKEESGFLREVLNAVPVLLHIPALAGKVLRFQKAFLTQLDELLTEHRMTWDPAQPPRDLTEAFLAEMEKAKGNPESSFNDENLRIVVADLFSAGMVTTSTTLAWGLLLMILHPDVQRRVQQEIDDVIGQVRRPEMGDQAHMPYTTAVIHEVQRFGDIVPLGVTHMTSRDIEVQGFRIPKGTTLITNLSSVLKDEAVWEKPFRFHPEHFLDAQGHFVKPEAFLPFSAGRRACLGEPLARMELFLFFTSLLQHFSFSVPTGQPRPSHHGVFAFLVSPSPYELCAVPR
Briefly: CYP inhibition in human liver microsomes, CYP2D6. Format: in vitro ADME. Conditions: probe dextromethorphan, substrate dextromethorphan, read-out: CYP2D6 Inh %.

In data set [12] the test system is CYP3A4&5. Briefly: CYP inhibition in human liver microsomes, CYP3A4&5 testosterone. Format: in vitro ADME. Conditions: probe testosterone, substrate testosterone, read-out: CYP3A4&5 testosterone Inh %.
The target in data set [13] is T1, CYP2C9. In words: CYP inhibition in human liver microsomes, CYP2C9. Format: in vitro ADME. Further details: incubated with human liver microsomes; from tissue; host or cells: human liver microsomes. As to conditions: probe diclofenac, substrate diclofenac, read-out: CYP2C9 Inh %.
For data set [14], the target named is T2, CYP3A4. Briefly: CYP inhibition in human liver microsomes, CYP3A4 midazolam. Format: in vitro ADME. Also on record: incubated with human liver microsomes; from tissue; host or cells: human liver microsomes. As to conditions: probe midazolam, substrate midazolam, read-out: CYP3A4 midazolam Inh %.
The mark [15] stands for this setting: with 1 mM NADPH, read-out: T1/2, + NaDPH.
[16] abbreviates: without NADPH, read-out: T1/2, no NaDPH.

T1 sequence (P11712 whole entry): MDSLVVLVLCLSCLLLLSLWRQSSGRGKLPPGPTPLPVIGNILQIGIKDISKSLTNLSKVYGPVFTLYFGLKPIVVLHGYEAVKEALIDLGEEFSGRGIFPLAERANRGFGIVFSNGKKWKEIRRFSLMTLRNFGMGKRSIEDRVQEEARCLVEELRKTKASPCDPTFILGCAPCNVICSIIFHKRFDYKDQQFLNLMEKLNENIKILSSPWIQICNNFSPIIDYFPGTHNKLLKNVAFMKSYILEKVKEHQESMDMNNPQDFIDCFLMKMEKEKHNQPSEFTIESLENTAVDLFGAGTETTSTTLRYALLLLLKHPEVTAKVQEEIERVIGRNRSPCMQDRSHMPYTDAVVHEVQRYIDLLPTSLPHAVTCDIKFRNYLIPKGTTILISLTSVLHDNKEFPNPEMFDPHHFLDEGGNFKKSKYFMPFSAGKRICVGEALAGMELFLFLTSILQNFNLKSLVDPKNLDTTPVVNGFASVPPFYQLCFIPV
T5 sequence (P05177 whole entry): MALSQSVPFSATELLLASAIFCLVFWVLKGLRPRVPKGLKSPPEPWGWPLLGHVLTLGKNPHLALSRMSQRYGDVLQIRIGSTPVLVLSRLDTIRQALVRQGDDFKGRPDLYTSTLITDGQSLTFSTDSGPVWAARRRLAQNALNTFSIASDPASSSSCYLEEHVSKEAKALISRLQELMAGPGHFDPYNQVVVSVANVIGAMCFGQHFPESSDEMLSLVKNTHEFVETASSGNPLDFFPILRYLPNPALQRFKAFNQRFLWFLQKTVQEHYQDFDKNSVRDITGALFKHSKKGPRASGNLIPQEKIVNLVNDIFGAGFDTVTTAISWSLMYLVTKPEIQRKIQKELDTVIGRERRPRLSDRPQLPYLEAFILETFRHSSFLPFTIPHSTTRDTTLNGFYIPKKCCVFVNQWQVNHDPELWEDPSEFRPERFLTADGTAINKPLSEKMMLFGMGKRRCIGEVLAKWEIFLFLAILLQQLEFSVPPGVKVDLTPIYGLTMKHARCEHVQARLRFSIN
T2 sequence (P08684 whole entry): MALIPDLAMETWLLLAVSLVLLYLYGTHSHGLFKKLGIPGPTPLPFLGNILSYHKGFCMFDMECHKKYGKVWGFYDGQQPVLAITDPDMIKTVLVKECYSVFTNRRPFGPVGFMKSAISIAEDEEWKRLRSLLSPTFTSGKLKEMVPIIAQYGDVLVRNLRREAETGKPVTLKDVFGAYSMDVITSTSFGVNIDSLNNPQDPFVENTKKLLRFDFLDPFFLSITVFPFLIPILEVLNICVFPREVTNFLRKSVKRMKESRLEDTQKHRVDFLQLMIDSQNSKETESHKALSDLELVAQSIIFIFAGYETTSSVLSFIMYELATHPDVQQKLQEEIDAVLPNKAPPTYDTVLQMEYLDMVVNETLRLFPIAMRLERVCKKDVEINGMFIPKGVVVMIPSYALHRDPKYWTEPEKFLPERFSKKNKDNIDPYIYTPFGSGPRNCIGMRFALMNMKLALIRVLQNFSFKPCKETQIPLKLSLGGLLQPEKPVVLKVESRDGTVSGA

Take `CCCCOC(=O)NS(=O)(=O)c1sc(CC(C)C)cc1-c1ccc(Cn2ccnc2)cc1` [Example C21, N-butyloxycarbonyl-3-(4-imidazol-1-ylmethylphenyl)-5-isobutylthiophene-2-sulfon-amide]: the “inhibition of CYP 2C9” value in [1] is listed as “potent inhibitor”. For the same compound, in [2], the “inhibition of CYP 3A4” value is recorded as “potent inhibitor”. Moreover, the metabolic hydrolysis entry in data set [3] is “rapidly hydrolysed to an inactive sulfonamide metabolite”.

Turning to `CC(C)Cc1ccc(S(=O)(=O)NC(=O)OCCO)c(-c2ccc(Cn3ccnc3C(C)(C)C)c(F)c2)c1` [Example 17, 2-Hydroxyethyl (4′-((2-(tert-butyl)-1H-imidazol-1-yl)methyl)-3′-fluoro-5-isobutyl-[1,1′-biphenyl]-2-yl)sulfonylcarbamate], the half-life at 1 μM in [4] (setting [15]) was more than 60 min. For the same compound, the half-life at 1 μM in [4] (setting [16]) was more than 60 min. In addition, in [5], the IC50 turned out to be 0.274 nM and the Ki was determined as 0.14 nM.

With `CCCCOC(=O)NS(=O)(=O)c1ccc(CC(C)C)cc1-c1ccc(Cn2ccnc2C(C)(C)C)c(F)c1` [Example 4, Butyl ((4′-((2-(tert-butyl)-1H-imidazol-1-yl)methyl)-3′-fluoro-5-isobutyl-[1,1′-biphenyl]-2-yl)sulfonyl)carbamate], the figures for the half-life at 1 μM in data set [4] (setting [15]) and in data set [4] (setting [16]) were 2 min and 4 min, respectively. The IC50 stood at 0.49 nM in data set [5] and 1200 nM in data set [6]. Also, the Ki in [5] was found to be 0.25 nM. Also, the inhibition at 10 µM was -35.8% in [7]; 62.4% in data set [8]; 60.4% in data set [9]; 87.5% in data set [10]; 26.5% in data set [11]; 23.5% in [12]. For the same compound, the inhibition at 10 µM in [13] is 92.8%; in data set [14], 18.1%.

As to `CC(C)Cc1nc(-c2ccc(Cn3ccnc3C(C)(C)C)cc2)c(S(=O)(=O)NC(=O)NCc2cccs2)s1` [Example 1, 4-(4-((2-(tert-Butyl)-1H-imidazol-1-yl)methyl)phenyl)-2-isobutyl-N-((thiophen-2-ylmethyl)carbamoyl)thiazole-5-sulfonamide], the IC50 was found to be 13 nM in [5] and 1350 nM in data set [6]. Also, the Ki in data set [5] is 6.5 nM.

Consider `CC(C)Cc1ccc(S(=O)(=O)NC(=O)NCc2ccccn2)c(-c2ccc(Cn3ccnc3C(C)(C)C)cc2)c1` [Example 2, 4′-((2-(tert-Butyl)-1H-imidazol-1-yl)methyl)-5-isobutyl-N-((pyridin-2-ylmethyl)carbamoyl)-[1,1′-biphenyl]-2-sulfonamide], for which, in [5], the IC50 is 0.43 nM and the Ki stood at 0.22 nM. Besides, in data set [6], the IC50 came out at 4600 nM.

As to `COC(=O)NS(=O)(=O)c1ccc(CC(C)C)cc1-c1ccc(Cn2ccnc2C)cc1` [Example 18, Methyl (5-isobutyl-4′-((2-methyl-1H-imidazol-1-yl)methyl)-[1,1′-biphenyl]-2-yl)sulfonylcarbamate], the half-life at 1 μM in data set [4] (setting [15]) and in data set [4] (setting [16]) was more than 60 min each time. Further, the IC50 in data set [5] amounted to 1.78 nM. In data set [5], the inhibition constant (Ki) worked out at 0.93 nM.

`CCOC(=O)NS(=O)(=O)c1ccc(CC(C)C)cc1-c1ccc(Cn2ccnc2C(C)C)c(F)c1` [Example 8, Ethyl ((3′-fluoro-5-isobutyl-4′-((2-isopropyl-1H-imidazol-1-yl)methyl)-[1,1′-biphenyl]-2-yl)sulfonyl)carbamate]: the half-life at 1 μM in data set [4] (setting [15]) came to 36 min; in data set [4] (setting [16]), 35 min. The inhibition at 10 µM in [7] was 10.4%; in [8] it was 32%; in data set [9] it was 33.7%; in data set [10] it was 76.7%; in data set [11] it was 1.2%; in data set [12], 19.4%. In addition, the inhibition at 10 µM was 50% in data set [13] and -4.7% in data set [14].

Turning to `CCOC(=O)NS(=O)(=O)c1ccc(CC(C)C)cc1-c1ccc(Cn2ccnc2CC)c(F)c1` [Example 14, Ethyl ((4′-((2-ethyl-1H-imidazol-1-yl)methyl)-3′-fluoro-5-isobutyl-[1,1′-biphenyl]-2-yl)sulfonyl)carbamate], the half-life at 1 μM in data set [4] (setting [15]) came to 43 min; in [4] (setting [16]) it was 46 min. In addition, the inhibition at 10 µM in data set [7] was 9.4%; in data set [8], 20.6%; in [9], 40.9%; in data set [10], 57.6%; in data set [11], 0.1%; in [12] it was 21.9%. The inhibition at 10 µM in data set [13] is 68%; in data set [14], -4.2%.

What is called IC50 is the concentration needed to halve the response being measured. Usually Ki stands for the equilibrium dissociation constant of an inhibitor or competing ligand from its target.
